For 10 molecules, EC50 results are on record in patent US9102673B2, “Substituted pyrrolo[3,2-c]pyridines as TrkA kinase inhibitors” (Merck Sharp & Dohme Corp., priority 2011, dated 2015).

In the assay the target is T1, TrkA (Homo sapiens, UniProt P04629).
T1 construct: purchased Cell Signaling
Description: TrkA kinase activity: phosphorylation of a fluorescently labeled peptide substrate (Caliper EZReader II). It is filed as biochemical. To be noted: [E]=0.37 nM, [S]=1 μM, [ATP]=2 mM, room temperature, 3 hours; read-out: Trk A EC50. How it is done:
TrkA kinase activity was measured as the ability of the enzyme to phosphorylate a fluorescently labeled peptide substrate. Buffer salts, reagents, and fluorescently labeled peptides were purchased from Carna Biosciences and were of the highest quality available (QSS Assist TRICA_MSA Kit). Enzyme was purchased from Cell Signaling, and was used without further purification. 384-well round bottom assay plates were prepared by the addition of […] of a DMSO solution of compound at various concentrations to final inhibitor concentrations ranging from 100 μM to 0.2 μM. Next, assay buffer (10 μl) containing substrate and ATP were added, followed by addition of 10 μl of enzyme in assay buffer. Final assays concentrations were: [E]=0.37 nM, [S]=1 μM, [ATP]=2 mM. The reactions were incubated at room temperature for 3 hours resulting in approximately 15% substrate phosphorylation and were terminated by the addition of 5 μl of stop buffer. Substrates and products were separated on the Caliper EZReader II (Caliper LifeSciences, Inc.) using standard separation protocols. The percent inhibition was calculated for each compound concentration and the IC50 was determined using equation 1.

T1 sequence (P04629 33-796): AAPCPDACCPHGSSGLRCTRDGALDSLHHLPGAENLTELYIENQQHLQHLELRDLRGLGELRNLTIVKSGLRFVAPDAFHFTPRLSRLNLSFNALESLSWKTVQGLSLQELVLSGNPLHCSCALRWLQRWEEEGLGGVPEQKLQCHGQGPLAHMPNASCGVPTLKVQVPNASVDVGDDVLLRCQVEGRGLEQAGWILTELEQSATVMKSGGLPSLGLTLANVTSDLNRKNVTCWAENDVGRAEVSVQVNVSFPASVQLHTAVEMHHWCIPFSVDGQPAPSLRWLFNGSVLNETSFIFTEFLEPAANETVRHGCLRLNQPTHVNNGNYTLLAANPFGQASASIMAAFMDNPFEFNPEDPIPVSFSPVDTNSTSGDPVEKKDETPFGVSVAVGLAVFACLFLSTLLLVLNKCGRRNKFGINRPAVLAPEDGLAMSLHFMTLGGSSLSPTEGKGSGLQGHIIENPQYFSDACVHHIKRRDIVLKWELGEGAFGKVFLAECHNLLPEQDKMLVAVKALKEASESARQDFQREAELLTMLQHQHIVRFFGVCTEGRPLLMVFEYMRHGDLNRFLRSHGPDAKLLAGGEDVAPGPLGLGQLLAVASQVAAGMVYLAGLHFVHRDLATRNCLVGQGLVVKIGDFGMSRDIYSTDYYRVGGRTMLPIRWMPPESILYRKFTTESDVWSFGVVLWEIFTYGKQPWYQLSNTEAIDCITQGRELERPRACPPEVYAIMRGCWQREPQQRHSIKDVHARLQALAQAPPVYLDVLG

As to `O=C(O)c1cc2cc(-c3cn[nH]c3)ccc2n1CCOc1ccc(OC(F)(F)F)cc1` [Example 76, 5-(1H-pyrazol-4-yl)-1-{2-[4-(trifluoromethoxy)phenoxy]ethyl}-1H-indole-2-carboxylic acid], the 50% effective concentration (EC50) amounted to 28.5 nM. As to `O=C(O)c1cc2cc(-c3cncnc3)ccc2n1CCOc1ccc(OC(F)(F)F)cc1` [Example 78, 5-pyrimidin-5-yl-1-{2-[4-(trifluoromethoxy)phenoxy]ethyl}-1H-indole-2-carboxylic acid], the EC50 was determined as 38.7 nM.

In the case of `CCOc1cccc(-c2nccc3c(CCOc4ccc(OC(F)(F)F)cc4)c(C(=O)O)[nH]c23)c1` [Example 91, 7-(3-ethoxyphenyl)-3-{2-[4-(trifluoromethoxy)phenoxy]ethyl}-1H-pyrrolo[2,3-d]pyridine-2-carboxylic acid], the EC50 was determined as 34.9 nM. For the molecule `CCOc1cccc(-c2nccn3c(CCOc4ccc(OC(F)(F)F)cc4)c(C(=O)O)nc23)c1` [Example 92, 8-(3-ethoxyphenyl)-3-{2-[4-(trifluoromethoxy)phenoxy]ethyl}imidazo[1,2-a]pyrazine-2-carboxylic acid], the 50% effective concentration (EC50) amounted to 1210 nM.

Take `CCOc1cccc(-c2nccc3c2cc(C(=O)O)n3CCOc2ccc(Oc3nccs3)cc2)c1` [Example 73, 4-(3-ethoxyphenyl)-1-{2-[4-(1,3-thiazol-2-yloxy)phenoxy]ethyl}-1H-pyrrolo[3,2-c]pyridine-2-carboxylic acid]: the 50% effective concentration (EC50) amounted to 776 nM. As to `O=C(O)c1cc2c(-c3cccc4ncccc34)nccc2n1Cc1noc(-c2ccccc2)n1` [Example 16, 1-[(5-phenyl-1,2,4-oxadiazol-3-yl)methyl]-4-(quinolin-5-yl)-1H-pyrrolo[3,2-c]pyridine-2-carboxylic acid], the EC50 came to 5360 nM. `CCOc1cccc(-c2nccc3c2cc(C(=O)O)n3CCOc2ccc(C(F)(F)F)nc2)c1` [Example 38, 4-(3-Ethoxyphenyl)-1-(2-{[6-(trifluoromethyl)Pyridin-3-yl]oxy}ethyl)-1H-pyrrolo[3,2-c]pyridine-2-carboxylic acid]: the EC50 was determined as 3920 nM. With `CCCNc1ncc(-c2nccc3c2cc(C(=O)O)n3CCOc2ccc(OC(F)(F)F)cc2)s1` [Example 57, 4-[2-(propylamino)-1,3-thiazol-5-yl]-1-{2-[4-(trifluoromethoxy)phenoxy]ethyl}-1H-pyrrolo[3,2-c]pyridine-2-carboxylic acid], the EC50 worked out at 162 nM. `O=C(O)c1cc2cc(-c3cccnc3)ccc2n1CCOc1ccc(OC(F)(F)F)cc1` [Example 81, 5-pyridin-3-yl-1-{2-[4-(trifluoromethoxy)phenoxy]ethyl}-1H-indole-2-carboxylic acid]: the EC50 was 469 nM. With `CCCNc1nccc(-c2nccc3c2cc(C(=O)O)n3CCOc2ccc(OC(F)(F)F)cc2)n1` [Example 58, 4-[2-(propylamino)pyrimidin-4-yl]-1-{2-[4-(trifluoromethoxy)phenoxy]ethyl}-1H-pyrrolo[3,2-c]pyridine-2-carboxylic acid], the EC50 amounted to 30700 nM.

A word on the EC50: it is the concentration at which the effect is half-maximal.
